In assay [1] the target is T1, E. faecium PolC^F1276S (exonuclease-inactivated) (Enterococcus faecium, UniProt A0A9X4B319, D429A/E431A/F1274S).
T1 sequence (A0A9X4B319 1-1450 D429A/E431A/F1274S): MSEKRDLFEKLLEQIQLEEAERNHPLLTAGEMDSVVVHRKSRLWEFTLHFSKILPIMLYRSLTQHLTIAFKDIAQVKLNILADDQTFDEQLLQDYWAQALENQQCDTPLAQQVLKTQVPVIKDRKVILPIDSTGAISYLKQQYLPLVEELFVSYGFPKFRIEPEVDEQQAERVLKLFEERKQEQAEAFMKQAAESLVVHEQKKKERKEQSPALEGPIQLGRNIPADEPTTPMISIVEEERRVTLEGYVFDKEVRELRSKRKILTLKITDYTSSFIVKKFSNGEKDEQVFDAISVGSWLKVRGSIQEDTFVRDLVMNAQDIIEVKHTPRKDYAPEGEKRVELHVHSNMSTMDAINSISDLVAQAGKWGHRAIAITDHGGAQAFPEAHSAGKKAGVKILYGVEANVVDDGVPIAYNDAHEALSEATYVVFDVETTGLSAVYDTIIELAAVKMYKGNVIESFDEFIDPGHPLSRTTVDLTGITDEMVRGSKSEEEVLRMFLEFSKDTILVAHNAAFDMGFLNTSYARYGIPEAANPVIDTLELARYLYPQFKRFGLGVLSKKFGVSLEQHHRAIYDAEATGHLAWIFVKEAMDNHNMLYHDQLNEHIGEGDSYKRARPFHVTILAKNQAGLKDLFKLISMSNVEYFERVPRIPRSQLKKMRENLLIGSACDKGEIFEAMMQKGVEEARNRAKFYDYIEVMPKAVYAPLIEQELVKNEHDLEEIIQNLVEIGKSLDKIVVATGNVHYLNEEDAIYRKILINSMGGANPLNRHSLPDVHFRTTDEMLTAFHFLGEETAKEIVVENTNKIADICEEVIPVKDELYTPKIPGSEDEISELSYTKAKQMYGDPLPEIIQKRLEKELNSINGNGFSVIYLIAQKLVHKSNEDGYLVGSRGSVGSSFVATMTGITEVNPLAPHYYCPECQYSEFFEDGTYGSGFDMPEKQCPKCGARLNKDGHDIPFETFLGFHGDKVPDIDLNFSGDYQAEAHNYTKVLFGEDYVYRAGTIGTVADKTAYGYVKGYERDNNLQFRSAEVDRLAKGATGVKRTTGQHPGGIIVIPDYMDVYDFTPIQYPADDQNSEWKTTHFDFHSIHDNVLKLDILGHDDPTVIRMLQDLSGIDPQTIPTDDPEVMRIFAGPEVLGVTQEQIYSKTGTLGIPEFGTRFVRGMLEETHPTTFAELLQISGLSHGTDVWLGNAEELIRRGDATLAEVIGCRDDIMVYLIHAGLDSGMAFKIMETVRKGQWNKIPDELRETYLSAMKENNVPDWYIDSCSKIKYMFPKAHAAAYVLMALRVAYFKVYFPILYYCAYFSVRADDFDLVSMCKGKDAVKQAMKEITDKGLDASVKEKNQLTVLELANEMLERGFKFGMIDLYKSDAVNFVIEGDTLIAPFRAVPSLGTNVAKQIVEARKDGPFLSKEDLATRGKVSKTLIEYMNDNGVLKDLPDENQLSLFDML
As to the kind of experiment: Real-time DNA primer extension assay. Type of assay: biochemical. The note with it: for rate of activity (slope of fluorescence intensity change over time): Fig. 4b source data, F1267S. The text has this: (§1) The genes for PolC (locus_tag: MIBBHLJO_01574) and DnaE (locus_tag: MIBBHLJO_00911) from E. faecium ATCC 700221 were codon-optimized for expression in E. coli and synthesized in vector pET28b by Twist Bioscience (San Francisco, CA). Expression constructs for variant PolC proteins were created with QuikChange Site-Directed Mutagenesis (Agilent) with oligonucleotides listed in Supplementary Table 3. F1276L, F1276S, and A1281T were introduced to assess the effect of these mutations on inhibition by ACX compounds. Mutations D972A and D974A were introduced to inactivate the polymerase activity and mutations D431A and E433A were introduced to inactivate the exonuclease activity (Fig. 1d, Supplementary Fig. 1).
(§2) Polymerase activity was monitored in real-time[31],[32] with a 42-nt long 5’ carboxyfluorescein-labelled DNA oligonucleotide template strand (DNASP8_42) annealed to a 30-nt primer oligonucleotide (oMU014). Polymerase activity in this assay is monitored by measuring fluorescence quenching of the labelled DNA template as a result of primer extension by PolC (for details see Supplementary Fig. 1b, c). Both primers were HPLC purified. Primer extension assays were performed in Reaction Buffer (see Gel-based polymerase and exonuclease assays) supplemented with 0.5 mg/mL BSA, 0.05% Tween20 and 25 uM of each dNTP (SRB) in 384-well Black Round Bottom plates (Corning 4514). The polymerase was diluted in the SRB and incubated for at least 5 min in the presence of inhibitor or solvent, with a final solvent concentration of 1%. The reaction was initiated by the addition of an equal volume of DNA substrate in SRB as described below. Fluorescence emission data was collected with a BMG Labtech PHERAstar FSX reader for 30 min at room temperature.
(§3) Compounds were dispensed with an Echo acoustic liquid handler (Beckman Coulter). All compounds were dissolved to 1 mM and 10 mM stocks in 100% DMSO and transferred to Echo LDV or PP source plates (Labcyte, Inc., CA), then dispensed to 384-well plates with a Labcyte Echo550 or Echo650 acoustic dispenser at volumes of 2.5 to 100 nL per well. […] A Mantis microfluidic liquid dispenser (Formulatrix) was used to dispense 5 µL polymerase and 5 µL substrate DNA (individually diluted in SRB) per well. […] The final concentration of DNA was 70 nM.
(§4) Data were analysed and standard error of the means (SEM) determined in Prism 8.4.2 and 10.2.3 (GraphPad). Raw time-course polymerase activity was plotted against time, with SEM of triplicates determined. The rate of activity (represented by signal quenching) was determined during the first 8 min (linear stage) by calculating the slope of fluorescence intensity change (converted to a positive value) over time (in seconds). The slopes were then normalized to percentage activity (%); per ‘replicate range’, 100% activity was defined as polymerase activity in the absence of inhibitor (polymerase control), and 0% activity was determined in the absence of polymerase (DNA signal; negative control). The SEM was determined between ‘replicate ranges’. The IC50 was determined using the dose-response (inhibition) nonlinear regression ‘[Inhibitor] vs. response (three parameters)’ without constraints.

Assay [2] relates to E. faecium PolC^F1276L (exonuclease-inactivated). Kind of assay: Real-time DNA primer extension assay. In kind it is biochemical, Enterococcus faecium. The note with it: versus wild-type PolC.
Description: as §1, §2, §3, §4

Several values for one entry are separate records, joined by “and”; a condition that tells them apart may be missing. Identical values can stand only once.

Data on 2 compounds can be found in PMC12592400, “A unique inhibitor conformation selectively targets the DNA polymerase PolC of Gram-positive priority pathogens” (Nature Communications, 2025).

`O=c1[nH]c(NCc2ccc3c(c2)OC(F)(F)O3)nc2c(F)nn(CCO)c12` [ACX-801, 5-(((2,2-difluorobenzo[d][1,3]dioxol-5-yl)methyl)amino)-3-fluoro-1-(2-hydroxyethyl)-1,6-dihydro-7H-pyrazolo[4,3-d]pyrimidin-7-one]: in assay [1], the IC50 – broadly, the concentration that inhibits the measured activity by half – amounted to 101 ± 8.8 µM. The “rate of activity (slope of fluorescence intensity change over time)” value in assay [1] (inhibitor 1 uM) is 29.5 and 29.8 and 30.7; in assay [1] (inhibitor 1.75 uM), 30.8 and 30.2 and 30.4; in assay [1] (inhibitor 2.5 uM), 31.6 and 32.7 and 27.4; in assay [1] (inhibitor 4 uM) it was 31.4 and 30.5 and 33.1; in assay [1] (inhibitor 5.75 uM) it was 30.4 and 30.7 and 31.4; in assay [1] (inhibitor 8.8 uM), 31.4 and 31.3 and 30.8. Besides, the “rate of activity (slope of fluorescence intensity change over time)” value in assay [1] (inhibitor 20 uM) is 28.6 and 27.8; in assay [1] (inhibitor 30 uM), 22.8 and 24.4 and 24.1; in assay [1] (inhibitor 45 uM), 18.0 and 19.1; in assay [1] (inhibitor 67.5 uM) it was 14.6 and 12.2; in assay [1] (inhibitor 100 uM), 10.5 and 12.0 and 13.4; in assay [1] (inhibitor 225 uM) it was 6.1 and 6.2 and 5.0. For the same compound, the “increase of IC50 by the F1276L mutation” value in assay [2] is above 19 fold.

Take `O=c1[nH]c(NCc2ccc(Cl)c(Cl)c2)nc2ncn(CCN3CCOCC3)c12` [IBZ, N^2-(3,4-dichlorobenzyl)-7-(2-[1-morpholinyl]ethyl)guanine]: in assay [1], the IC50 was above 225 µM. For the same compound, the “rate of activity (slope of fluorescence intensity change over time)” value is 29.0 and 29.8 and 31.7 in assay [1] (inhibitor 1 uM); 30.0 and 28.9 and 29.5 in assay [1] (inhibitor 1.75 uM); 26.9 and 26.5 and 27.3 in assay [1] (inhibitor 2.5 uM); 31.2 and 29.8 and 29.5 in assay [1] (inhibitor 4 uM); 28.2 in assay [1] (inhibitor 5.75 uM); 25.6 and 30.1 and 32.4 in assay [1] (inhibitor 8.8 uM). The “rate of activity (slope of fluorescence intensity change over time)” value in assay [1] (inhibitor 20 uM) is 30.9 and 27.1 and 31.2; in assay [1] (inhibitor 30 uM), 29.0 and 27.4; in assay [1] (inhibitor 45 uM), 31.6 and 29.8 and 28.0; in assay [1] (inhibitor 67.5 uM), 29.0 and 32.1 and 30.5; in assay [1] (inhibitor 100 uM), 28.6 and 28.2; in assay [1] (inhibitor 150 uM), 27.2 and 24.9 and 25.9. Further, the “rate of activity (slope of fluorescence intensity change over time)” value in assay [1] (inhibitor 225 uM) is 28.0 and 22.8. Moreover, the “increase of IC50 by the F1276L mutation” value in assay [2] is recorded as above 48 fold.
